Patent publication EP0469010B1, “COSMETIC COMPOSITION” (priority 1989, dated 1990)
Where a name gives a salt, the structure may show the parent alone.

Key:
Assay type in all cases: in vivo, human
total alopecia = test: Clinical pilot study of topical micronized sucralfate in alopecia: total alopecia; conditions: one patient, total alopecia for 20 years, 5% micronized sucralfate twice daily for 6 weeks
Description: (§1) A composition containing micronized sucralfate (<5 µm, Giulini Chemie, Germany) 5%, ethanol 25%, propylene glycol 25%, and distilled water 45%, was used in two daily applications on the scalp, the composition being dispensed in a bottle with sponge applicator. The average consumption of the test preparation in individual patients was about one bottle per month. […] The effects were lasting after stopping the treatment for about 4 months.

[1] = tested on: common male-pattern baldness; test: Treatment with sucralfate cream of common male-pattern baldness (single case, Example 14); conditions: 10% w/w sucralfate preparation, two daily topical applications, person, after 3-4 weeks
Description: At the beginning, a "plume" appeared in the area, and after a few days the "plume" began turning into real hairs and 8 days after, there were dozens of real hairs which were indistinguishable from other hairs of the scalp, apart from being shorter and all coloured in the original colour of the hair, in contrast to the existing hair, which was partially greyed.

Male androgenic alopecia [2] = test: Clinical pilot study of topical micronized sucralfate in alopecia: male androgenic alopecia
Description: as §1

Ludwig type alopecia = test: Clinical pilot study of topical sodium sucrose sulfate in alopecia: Ludwig type alopecia in females; conditions: 5 females aged 20-49 years, treated 6-8 months, 3% solution topically
Protocol: (§2) The test preparation was a 3% solution of Na-sucrose sulfate in a vehicle of 50% water/25% ethanol/25% propylene glycol (w/w), dispensed in 35 ml bottles with a sponge for topical administration on the scalp. The test preparation was applied morning and evening on the scalp, preferably on areas of partial or total alopecia. In average the patients have been using one bottle per month.
(§3) All patients were recruited by one dermatologist, and the effect of treatment was evaluated clinically by the same investigator, at monthly clinic visits.
(§4) The clinical effect was classified as very good in cases of definite cosmetic benefit, as good in cases of significant regrowth of new hair, but not to an extend that is cosmetically apparent at distance, and as no effect in cases of no or only marginal regrowth of hair.
5 Females aged from 20-49 years with Ludwig type alopecia were treated with the test drug for 6-8 months.

[3] = tested on: very bad hair condition and underlying psoriasis; test: Clinical pilot study of topical sodium sucrose sulfate in alopecia: bad hair condition with psoriasis; design: key: very good in cases of definite cosmetic benefit; good in cases of significant regrowth of new hair, but not to an extend that is cosmetically apparent at distance; no effect in cases of no or only marginal regrowth of hair; conditions: one person, treated for 9 months, 3% solution topically
Protocol: (§5) During a 11 month period (April 1989 to March 1990), a total of 50 patients participated in a pilot study, evaluating the effect of the sodium salt of sucrose sulfate administered topically for the treatment of alopecia.
as §2, §3, §4
One person with very bad hair condition and underlying psoriasis was treated for 9 months and a very good effect on the test drug was obtained.

alopecia areata = test: Clinical pilot study of topical sodium sucrose sulfate in alopecia: alopecia areata; design: key: very good in cases of definite cosmetic benefit; good in cases of significant regrowth of new hair, but not to an extend that is cosmetically apparent at distance; no effect in cases of no or only marginal regrowth of hair; conditions: 5 female patients aged 39 to 46 years, treated 2 to 9 months, 3% solution topically
Protocol: as §5, §2, §3, §4
5 Female patients with alopecia areata aged from 39 years to 46 years were treated for periods from 2 to 9 months, the treatment showing a very good effect.

Male androgenic alopecia [4] = test: Clinical pilot study of topical sodium sucrose sulfate in alopecia: male androgenic alopecia; design: key to clinical effect: very good in cases of definite cosmetic benefit; good in cases of significant regrowth of new hair, but not to an extend that is cosmetically apparent at distance; no effect in cases of no or only marginal regrowth of hair; conditions: for clinical effect: 4 patients; for Clinical effect Good (number of patients) / Clinical effect No effect (number of patients) / Clinical effect Very good (number of patients): 3% solution topically morning and evening, about 3 to 9 months
Protocol: During a 11 month period (April 1989 to March 1990), a total of 50 patients participated in a pilot study, evaluating the effect of the sodium salt of sucrose sulfate administered topically for the treatment of alopecia. The test preparation was a 3% solution of Na-sucrose sulfate in a vehicle of 50% water/25% ethanol/25% propylene glycol (w/w), dispensed in 35 ml bottles with a sponge for topical administration on the scalp. The test preparation was applied morning and evening on the scalp, preferably on areas of partial or total alopecia. In average the patients have been using one bottle per month. All patients were recruited by one dermatologist, and the effect of treatment was evaluated clinically by the same investigator, at monthly clinic visits. The clinical effect was classified as very good in cases of definite cosmetic benefit, as good in cases of significant regrowth of new hair, but not to an extend that is cosmetically apparent at distance, and as no effect in cases of no or only marginal regrowth of hair. Male androgenic alopecia was the clinical diagnosis in 35 patients, their age ranging from 17 years to 50 years. Period of treatment was about 3 months in 15 case, about 6 months in 10 cases, and about 9 months in 10 cases.

[5] = tested on: subtotal or total alopecia, with underlying atopic dermatitis; test: Clinical pilot study of topical sodium sucrose sulfate in alopecia: subtotal or total alopecia; conditions: 3% solution topically
Protocol: as §5, §2, §3, §4
2 Patients suffered from subtotal or total alopecia, with underlying atopic dermatitis.

[6] = tested on: hair loss secondary to anti-cancer treatment; test: Pilot study of sodium sucrose sulfate, prophylactic and therapeutic, in hair loss secondary to anti-cancer treatment
Description: The test preparation containing sodium sucrose sulfate from Example 11 was used both prophylactically and therapeutically in a few patients undergoing radiation and/or cytostatic anti-cancer treatment. One person started the treatment with the test preparation immediately after the anti-cancer treatment was instituted, applying the test preparation twice daily on eyebrows and eyelashes on the right side, and the left side served as untreated control. The treatment lasted four weeks. […] Another four females - also on anti-cancer treatment - used the test preparation twice daily, topically on the scalp after the hair was lost.

underlying discoid LE = test: Clinical pilot study of topical sodium sucrose sulfate in alopecia: underlying discoid LE; design: key: very good in cases of definite cosmetic benefit; good in cases of significant regrowth of new hair, but not to an extend that is cosmetically apparent at distance; no effect in cases of no or only marginal regrowth of hair; conditions: 2 female patients, treated 2 and 4 months; regrowth except for the very center of the lesion
Protocol: as §5, §2, §3, §4
2 female patients with underlying discoid LE were successfully treated for 2 and 4 months, respectively, with a very good effect comprising regrowth of hair except for the very center of the lesion.

[7] = age group 17-25 years, 20 patients
[8] = age group 25-40 years, 10 patients
[9] = age group >40 years, 5 patients

sucrose octakis(hydrogen sulfate) aluminium complex [sucralfate]
regrowth of hair (total alopecia): dense regrowth of fine short terminal hairs all over the scalp | appearance of hair [1]: appearance of hair in the otherwise bald lateral-frontal areas | regrowth of hair (Male androgenic alopecia [2]; one person, Hamilton grade 3, 5% micronized sucralfate twice daily for two months): dense regrowth of small terminal hairs | duration of effects after stopping the treatment (Male androgenic alopecia [2]; one person, Hamilton grade 3, after two months of treatment): about 4 months | regrowth of hair (Male androgenic alopecia [2]; six male patients aged 30 to 48 years, Hamilton grade 3 and 4, 5% micronized sucralfate twice daily for 3 to 6 months, all six cases): definite regrowth of terminal hairs | time of treatment until effect seen (Male androgenic alopecia [2]; six male patients, Hamilton grade 3 and 4, typical value): 6-8 weeks

O=S(=O)(O)OC[C@H]1O[C@@](COS(=O)(=O)O)(O[C@H]2O[C@H](COS(=O)(=O)O)[C@@H](OS(=O)(=O)O)[C@H](OS(=O)(=O)O)[C@H]2OS(=O)(=O)O)[C@@H](OS(=O)(=O)O)[C@@H]1OS(=O)(=O)O [sodium sucrose sulfate, Sodium sucrose octasulfate]
number of patients with good effect (Ludwig type alopecia): 3 patients | number of patients with only a marginal effect (Ludwig type alopecia): 2 patients | clinical effect [3]: very good | clinical effect (alopecia areata): very good | clinical effect (Male androgenic alopecia [4]; age group 17-25, previously failed on minoxidil, 3% solution topically): no effect | clinical effect (Male androgenic alopecia [4]; age group 25-40, previously failed on minoxidil, 3% solution topically): good | Clinical effect Good (number of patients) (Male androgenic alopecia [4]; [7]): 8 | Clinical effect No effect (number of patients) (Male androgenic alopecia [4]; [7]): 4 | Clinical effect Very good (number of patients) (Male androgenic alopecia [4]; [7]): 8 | Clinical effect Good (number of patients) (Male androgenic alopecia [4]; [8]): 2 | Clinical effect No effect (number of patients) (Male androgenic alopecia [4]; [8]): 2 | Clinical effect Very good (number of patients) (Male androgenic alopecia [4]; [8]): 4 | Clinical effect Good (number of patients) (Male androgenic alopecia [4]; [9]): 2 | Clinical effect No effect (number of patients) (Male androgenic alopecia [4]; [9]): 2 | time of treatment until hair-growing effect apparent (Male androgenic alopecia [4]; patients responding to the treatment, whole pilot study, typical value): ~1 month | effect in comparison to topically applied minoxidil (Regain®) (Male androgenic alopecia [4]; whole pilot study, 3% solution topically): markedly better effect | effect of treatment ([5]; person with 2-3 years of alopecia, treatment for 8 months): only little effect | regrowth of hair ([5]; person, bald for 20 years, treatment for 10 months): complete regrowth of hair | regrowth of hair after loss ([6]; four females on anti-cancer treatment, twice daily topically on the scalp after the hair was lost): much faster regrowth of hair than normally | prevention of loss of eyebrows and eyelashes ([6]; one on anti-cancer treatment, twice daily on right side for four weeks, left side untreated control (lost)): eyebrows and eyelashes remained | clinical effect (underlying discoid LE): very good
